Measurements as given in ChEMBL document CHEMBL5678818, “Discovery of potent SOS1 inhibitors that block RAS activation via disruption of the RAS-SOS1 interaction” (Proc Natl Acad Sci U S A, 2019).

How the values were obtained:
[1] = test system: Tyrosine-protein kinase ABL1 (Homo sapiens), P00519 [F317L]; assay: Inhibition of nonphosphorylated ABL1 F317L mutant (unknown origin) assessed as residual activity at 1000 nM by KINOMEscan analysis relative to control
[2] = molecular target: T1, Bone morphogenetic protein receptor type-2 (Homo sapiens) (UniProt Q13873); assay: Inhibition of BMPR2 (unknown origin) assessed as residual activity at 1000 nM by KINOMEscan analysis relative to control
T1 sequence (whole entry): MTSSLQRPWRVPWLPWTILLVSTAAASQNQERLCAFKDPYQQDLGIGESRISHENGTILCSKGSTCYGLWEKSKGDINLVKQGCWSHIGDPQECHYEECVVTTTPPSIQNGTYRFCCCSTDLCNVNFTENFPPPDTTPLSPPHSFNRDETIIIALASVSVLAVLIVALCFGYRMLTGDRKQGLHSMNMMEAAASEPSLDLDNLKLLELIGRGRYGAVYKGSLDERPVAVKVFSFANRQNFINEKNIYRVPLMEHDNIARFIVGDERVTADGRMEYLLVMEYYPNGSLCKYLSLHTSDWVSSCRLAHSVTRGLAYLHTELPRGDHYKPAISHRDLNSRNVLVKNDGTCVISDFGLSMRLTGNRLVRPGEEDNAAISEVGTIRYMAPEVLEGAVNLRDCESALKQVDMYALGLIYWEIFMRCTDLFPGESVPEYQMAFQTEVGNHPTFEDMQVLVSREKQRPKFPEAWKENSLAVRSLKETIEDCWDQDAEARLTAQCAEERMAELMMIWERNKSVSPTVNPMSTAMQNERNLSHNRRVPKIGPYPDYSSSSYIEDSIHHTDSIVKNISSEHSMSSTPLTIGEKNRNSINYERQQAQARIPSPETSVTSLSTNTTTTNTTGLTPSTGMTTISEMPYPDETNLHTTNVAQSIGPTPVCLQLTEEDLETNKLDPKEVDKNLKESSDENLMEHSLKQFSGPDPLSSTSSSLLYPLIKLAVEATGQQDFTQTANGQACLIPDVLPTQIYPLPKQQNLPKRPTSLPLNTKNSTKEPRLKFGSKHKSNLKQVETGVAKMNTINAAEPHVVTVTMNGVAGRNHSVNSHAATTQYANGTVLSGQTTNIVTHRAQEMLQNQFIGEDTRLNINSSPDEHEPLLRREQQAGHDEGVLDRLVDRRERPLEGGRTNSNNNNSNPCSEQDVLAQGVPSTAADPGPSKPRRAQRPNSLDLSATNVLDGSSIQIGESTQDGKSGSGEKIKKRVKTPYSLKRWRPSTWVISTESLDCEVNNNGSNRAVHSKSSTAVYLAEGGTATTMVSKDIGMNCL

[3] = molecular target: Calcium/calmodulin-dependent protein kinase type 1G (Homo sapiens) (UniProt Q96NX5); assay: Inhibition of CAMK1G (unknown origin) assessed as residual activity at 1000 nM by KINOMEscan analysis relative to control
[4] = molecular target: Cyclin-dependent kinase 7 (Homo sapiens) (UniProt P50613); assay: Inhibition of CDK7 (unknown origin) assessed as residual activity at 1000 nM by KINOMEscan analysis relative to control
[5] = molecular target: Mitogen-activated protein kinase 4 (Homo sapiens) (UniProt P31152); assay: Inhibition of ERK4 (unknown origin) assessed as residual activity at 1000 nM by KINOMEscan analysis relative to control
[6] = molecular target: Serine/threonine-protein kinase 10 (Homo sapiens) (UniProt O94804); assay: Inhibition of LOK (unknown origin) assessed as residual activity at 1000 nM by KINOMEscan analysis relative to control
[7] = molecular target: Serine/threonine-protein kinase MARK1 (Homo sapiens) (UniProt Q9P0L2); assay: Inhibition of MARK1 (unknown origin) assessed as residual activity at 1000 nM by KINOMEscan analysis relative to control
[8] = molecular target: Cyclin-dependent kinase 2 homolog (Plasmodium falciparum (isolate K1 / Thailand)) (UniProt Q07785); assay: Inhibition of Plasmodium falciparum PK5 assessed as residual activity at 1000 nM by KINOMEscan analysis relative to control
[9] = molecular target: Protein kinase C theta type (Homo sapiens) (UniProt Q04759); assay: Inhibition of PRKCQ (unknown origin) assessed as residual activity at 1000 nM by KINOMEscan analysis relative to control
[10] = molecular target: T2, Uncharacterized serine/threonine-protein kinase SBK3 (Homo sapiens) (UniProt P0C264); assay: Inhibition of SgK110 (unknown origin) assessed as residual activity at 1000 nM by KINOMEscan analysis relative to control
T2 sequence (whole entry): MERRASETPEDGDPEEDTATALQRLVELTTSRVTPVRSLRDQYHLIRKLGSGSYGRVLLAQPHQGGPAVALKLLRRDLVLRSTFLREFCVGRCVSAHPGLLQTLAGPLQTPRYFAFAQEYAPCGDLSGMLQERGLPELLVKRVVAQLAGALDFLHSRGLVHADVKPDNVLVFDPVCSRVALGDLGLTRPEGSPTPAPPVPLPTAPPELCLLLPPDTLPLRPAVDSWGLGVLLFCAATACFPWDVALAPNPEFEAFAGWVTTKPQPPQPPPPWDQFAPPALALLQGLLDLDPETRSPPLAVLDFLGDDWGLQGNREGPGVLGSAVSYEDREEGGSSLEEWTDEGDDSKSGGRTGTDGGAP

[11] = molecular target: Serine/threonine-protein kinase 32C (Homo sapiens) (UniProt Q86UX6); assay: Inhibition of YANK3 (unknown origin) assessed as residual activity at 1000 nM by KINOMEscan analysis relative to control

Calcium/calmodulin-dependent protein kinase type 1G (Homo sapiens), sequence (Q96NX5 whole entry): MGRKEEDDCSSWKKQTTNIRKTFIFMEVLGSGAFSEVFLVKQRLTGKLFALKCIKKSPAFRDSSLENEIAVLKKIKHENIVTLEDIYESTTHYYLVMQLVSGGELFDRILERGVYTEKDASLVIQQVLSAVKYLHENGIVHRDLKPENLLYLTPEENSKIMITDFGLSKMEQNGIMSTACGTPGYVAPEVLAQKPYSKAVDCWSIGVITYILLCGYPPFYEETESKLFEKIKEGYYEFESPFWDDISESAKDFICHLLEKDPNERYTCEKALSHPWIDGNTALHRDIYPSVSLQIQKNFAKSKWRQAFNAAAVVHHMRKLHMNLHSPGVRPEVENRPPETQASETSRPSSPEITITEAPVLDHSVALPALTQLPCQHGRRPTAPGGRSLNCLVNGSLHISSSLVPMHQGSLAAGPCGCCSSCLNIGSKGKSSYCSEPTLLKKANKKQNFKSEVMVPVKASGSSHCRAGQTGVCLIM
Serine/threonine-protein kinase 10 (Homo sapiens), sequence (O94804 whole entry, looked up): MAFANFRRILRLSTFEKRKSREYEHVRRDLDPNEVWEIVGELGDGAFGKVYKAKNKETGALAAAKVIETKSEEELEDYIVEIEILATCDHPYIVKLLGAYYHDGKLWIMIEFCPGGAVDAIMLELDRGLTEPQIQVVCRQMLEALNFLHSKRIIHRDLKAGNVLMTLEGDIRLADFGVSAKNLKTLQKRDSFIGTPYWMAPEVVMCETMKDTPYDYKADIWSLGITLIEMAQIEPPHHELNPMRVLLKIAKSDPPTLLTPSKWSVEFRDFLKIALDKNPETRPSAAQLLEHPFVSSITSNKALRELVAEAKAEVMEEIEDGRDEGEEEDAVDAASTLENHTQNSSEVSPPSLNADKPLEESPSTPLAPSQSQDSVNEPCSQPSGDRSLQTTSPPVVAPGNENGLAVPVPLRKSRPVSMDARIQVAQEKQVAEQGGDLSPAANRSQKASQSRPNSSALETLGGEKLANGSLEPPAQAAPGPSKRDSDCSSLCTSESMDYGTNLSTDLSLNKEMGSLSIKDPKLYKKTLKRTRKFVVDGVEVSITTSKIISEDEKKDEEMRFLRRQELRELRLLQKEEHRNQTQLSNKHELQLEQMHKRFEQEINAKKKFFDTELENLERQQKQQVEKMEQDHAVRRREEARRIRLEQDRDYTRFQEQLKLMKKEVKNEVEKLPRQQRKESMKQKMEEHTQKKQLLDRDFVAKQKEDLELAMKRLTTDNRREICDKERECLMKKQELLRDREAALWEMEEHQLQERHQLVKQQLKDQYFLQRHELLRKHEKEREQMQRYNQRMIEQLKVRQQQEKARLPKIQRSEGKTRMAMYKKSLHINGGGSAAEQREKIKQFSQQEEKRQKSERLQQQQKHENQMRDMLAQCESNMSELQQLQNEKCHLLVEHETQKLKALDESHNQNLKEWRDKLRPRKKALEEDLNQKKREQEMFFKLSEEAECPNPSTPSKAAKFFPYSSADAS
Mitogen-activated protein kinase 4 (Homo sapiens), sequence (P31152 whole entry): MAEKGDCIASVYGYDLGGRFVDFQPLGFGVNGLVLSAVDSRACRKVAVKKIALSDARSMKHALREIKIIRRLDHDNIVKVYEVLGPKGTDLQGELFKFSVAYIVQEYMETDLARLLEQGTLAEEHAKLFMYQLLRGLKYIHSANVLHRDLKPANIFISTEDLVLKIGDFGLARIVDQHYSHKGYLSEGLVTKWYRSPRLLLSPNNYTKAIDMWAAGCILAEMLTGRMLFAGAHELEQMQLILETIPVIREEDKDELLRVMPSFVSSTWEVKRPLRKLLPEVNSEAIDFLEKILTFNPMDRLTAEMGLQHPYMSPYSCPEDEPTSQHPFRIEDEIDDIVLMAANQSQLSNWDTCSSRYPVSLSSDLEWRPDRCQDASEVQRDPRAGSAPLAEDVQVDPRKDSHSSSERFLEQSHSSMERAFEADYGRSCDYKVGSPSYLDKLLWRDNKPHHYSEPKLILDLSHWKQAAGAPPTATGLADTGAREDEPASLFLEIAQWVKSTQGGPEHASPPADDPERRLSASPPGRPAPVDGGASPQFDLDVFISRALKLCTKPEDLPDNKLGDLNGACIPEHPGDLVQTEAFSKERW
Tyrosine-protein kinase ABL1 (Homo sapiens), P00519 [F317L], sequence (P00519 whole entry F317L): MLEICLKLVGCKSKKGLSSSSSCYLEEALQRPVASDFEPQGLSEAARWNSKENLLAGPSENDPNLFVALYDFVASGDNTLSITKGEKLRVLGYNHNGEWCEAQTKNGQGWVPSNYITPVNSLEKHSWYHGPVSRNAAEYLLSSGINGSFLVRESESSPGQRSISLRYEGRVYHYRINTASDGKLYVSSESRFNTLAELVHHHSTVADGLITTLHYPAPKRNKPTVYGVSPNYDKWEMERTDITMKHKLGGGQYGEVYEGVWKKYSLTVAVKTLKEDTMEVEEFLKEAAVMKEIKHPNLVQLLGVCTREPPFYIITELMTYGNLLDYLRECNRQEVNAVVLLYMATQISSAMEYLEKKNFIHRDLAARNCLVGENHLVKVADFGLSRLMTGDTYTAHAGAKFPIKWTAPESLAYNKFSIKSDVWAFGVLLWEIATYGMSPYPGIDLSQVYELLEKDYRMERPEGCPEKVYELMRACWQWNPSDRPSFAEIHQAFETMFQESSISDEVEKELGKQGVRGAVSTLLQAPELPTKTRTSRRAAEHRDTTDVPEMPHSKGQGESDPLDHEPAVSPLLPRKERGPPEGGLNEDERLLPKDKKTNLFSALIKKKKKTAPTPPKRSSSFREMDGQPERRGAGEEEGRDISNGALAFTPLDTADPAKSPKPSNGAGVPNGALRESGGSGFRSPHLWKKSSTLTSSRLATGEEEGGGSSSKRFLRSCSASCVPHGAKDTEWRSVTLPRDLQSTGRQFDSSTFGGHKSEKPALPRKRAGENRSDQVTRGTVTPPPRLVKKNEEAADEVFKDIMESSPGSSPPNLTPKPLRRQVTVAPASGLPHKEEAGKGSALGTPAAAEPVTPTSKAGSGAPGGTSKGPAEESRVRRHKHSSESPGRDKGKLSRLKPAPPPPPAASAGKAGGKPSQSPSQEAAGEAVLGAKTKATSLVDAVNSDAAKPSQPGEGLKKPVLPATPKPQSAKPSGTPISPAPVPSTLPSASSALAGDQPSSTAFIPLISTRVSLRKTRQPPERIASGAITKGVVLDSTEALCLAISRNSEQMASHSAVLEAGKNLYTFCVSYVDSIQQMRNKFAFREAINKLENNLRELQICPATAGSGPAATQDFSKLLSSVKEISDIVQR
Serine/threonine-protein kinase MARK1 (Homo sapiens), sequence (Q9P0L2 whole entry, looked up): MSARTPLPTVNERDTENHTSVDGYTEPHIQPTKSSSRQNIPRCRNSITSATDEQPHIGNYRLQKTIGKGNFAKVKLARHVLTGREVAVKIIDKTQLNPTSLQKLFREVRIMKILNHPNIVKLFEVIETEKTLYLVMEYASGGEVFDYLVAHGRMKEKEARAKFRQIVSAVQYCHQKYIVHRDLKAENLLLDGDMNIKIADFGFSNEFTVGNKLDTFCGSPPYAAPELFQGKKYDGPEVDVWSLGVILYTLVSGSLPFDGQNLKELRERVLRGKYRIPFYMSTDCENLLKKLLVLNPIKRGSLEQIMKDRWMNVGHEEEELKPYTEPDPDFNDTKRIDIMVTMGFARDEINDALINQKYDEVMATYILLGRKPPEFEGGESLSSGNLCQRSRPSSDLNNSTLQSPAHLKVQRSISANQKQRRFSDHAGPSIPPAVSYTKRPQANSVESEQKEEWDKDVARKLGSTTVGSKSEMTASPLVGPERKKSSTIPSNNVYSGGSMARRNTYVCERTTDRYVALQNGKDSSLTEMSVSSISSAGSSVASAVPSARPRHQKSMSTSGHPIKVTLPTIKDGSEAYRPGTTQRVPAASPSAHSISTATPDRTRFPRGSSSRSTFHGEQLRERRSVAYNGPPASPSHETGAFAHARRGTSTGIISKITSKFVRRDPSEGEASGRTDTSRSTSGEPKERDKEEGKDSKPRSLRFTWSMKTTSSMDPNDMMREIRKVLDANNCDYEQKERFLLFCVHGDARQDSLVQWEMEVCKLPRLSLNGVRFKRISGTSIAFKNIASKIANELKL
Cyclin-dependent kinase 7 (Homo sapiens), sequence (P50613 whole entry): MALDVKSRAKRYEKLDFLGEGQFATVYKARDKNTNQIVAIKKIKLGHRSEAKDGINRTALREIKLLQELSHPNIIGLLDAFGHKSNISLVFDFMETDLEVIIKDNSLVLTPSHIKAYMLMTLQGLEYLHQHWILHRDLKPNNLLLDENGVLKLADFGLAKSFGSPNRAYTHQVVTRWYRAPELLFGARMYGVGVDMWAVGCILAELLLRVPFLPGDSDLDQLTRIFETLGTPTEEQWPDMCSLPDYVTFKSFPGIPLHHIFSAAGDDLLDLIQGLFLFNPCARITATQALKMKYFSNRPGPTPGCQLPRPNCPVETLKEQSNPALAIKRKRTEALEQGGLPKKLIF
Protein kinase C theta type (Homo sapiens), sequence (Q04759 whole entry, looked up): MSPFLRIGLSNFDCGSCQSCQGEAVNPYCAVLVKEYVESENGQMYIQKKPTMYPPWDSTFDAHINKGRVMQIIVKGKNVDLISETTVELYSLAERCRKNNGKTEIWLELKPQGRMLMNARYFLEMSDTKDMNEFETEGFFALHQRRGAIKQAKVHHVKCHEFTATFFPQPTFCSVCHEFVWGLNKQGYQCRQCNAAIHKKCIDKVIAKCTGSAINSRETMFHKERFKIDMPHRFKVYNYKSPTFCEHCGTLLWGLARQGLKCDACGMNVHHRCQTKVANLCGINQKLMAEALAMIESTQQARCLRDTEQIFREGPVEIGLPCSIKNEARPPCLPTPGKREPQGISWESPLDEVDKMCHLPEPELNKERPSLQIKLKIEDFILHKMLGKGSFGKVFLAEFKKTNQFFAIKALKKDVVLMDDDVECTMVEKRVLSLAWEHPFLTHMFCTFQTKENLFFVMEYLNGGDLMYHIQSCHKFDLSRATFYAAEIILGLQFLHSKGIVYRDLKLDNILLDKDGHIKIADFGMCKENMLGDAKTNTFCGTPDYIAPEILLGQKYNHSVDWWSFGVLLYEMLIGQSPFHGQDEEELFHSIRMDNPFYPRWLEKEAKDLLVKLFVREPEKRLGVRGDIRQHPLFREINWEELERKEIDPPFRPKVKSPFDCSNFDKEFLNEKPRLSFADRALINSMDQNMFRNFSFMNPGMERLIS

SMILES	Activity [1]	Activity [2]	Activity [3]	Activity [4]	Activity [5]	Activity [6]	Activity [7]	Activity [8]	Activity [9]	Activity [10]	Activity [11]
COc1cc2nc(C)nc(N[C@H](C)c3cccc(-c4cn[nH]c4)c3)c2cc1OC	99%	83%	100%	92%	92%	56%	100%	98%	84%	100%	98%
COc1cc2ncnc(N[C@H](C)c3cccc4ccccc34)c2cc1OC	99%	89%	98%	87%	89%	44%	73%	100%	100%	100%	100%
